According to article PMC8750527 (Cancers, 2021):
Where two headings read alike, the source gives them in different places.

Assays:
[1] = tested on: C8-D1A; assay: MTT assay, 48 h exposure, murine primary astrocytes; format: cell-based; conditions: Mus musculus, C8-D1A
Procedure: (§1) HDF (3000 cells), C8-D1A (5000 cells), D458 (5000 cells), DAOY (2000 cells), HD-MB03 (10,000 cells) and CHLA-01-Med (10,000 cells) were seeded at an approximate confluency of 50% in 96-well plates (Corning Inc., Corning, NY, USA) in 100 µL medium per well. A range from 50 nM to 150 µM of every drug was tested. The effects of the antiangiogenic compounds were measured using a 3-[4,5-dimethylthiazol-2yl]-diphenyltetrazolium bromide (MTT) colorimetric assay (Sigma, Lyon, France) according to the manufacturer’s instructions. When applicable, IC50 was calculated using the nonlinear regression method of the Prism 5 software (Graphpad Software Inc., San Diego, CA, USA). […] An MTT assay was conducted as described above to assess the fitness of the cells.

[2] = tested on: MB cells; assay: Cell viability, propidium iodine incorporation, MB cells; format: cell-based, human; conditions: 48 h, 5 µM
Procedure: (§2) Cell viability assays were conducted using a propidium iodine incorporation technique with an ADAM-sHIT automated cell counter (NanoEnTek, Gyeonggi-do, Korea) according to the manufacturer’s protocol.

[3] = tested on: C8-D1A astrocytes; assay: Cell viability, propidium iodine incorporation, C8-D1A; format: cell-based, murine; conditions: 48 h; axitinib, cabozantinib, sunitinib 5 µM, etoposide 1 µM
Procedure: as §2

[4] = tested on: HD-MB03; assay: MTT assay, 48 h exposure, HD-MB03 MB cells; format: cell-based, human; conditions: for IC50: Homo sapiens, HD-MB03, MTT, 48 h exposure, mean ± SEM
Procedure: as §1

[5] = tested on: CHLA-01-Med; assay: MTT assay, 48 h exposure, CHLA-01-Med MB cells; format: cell-based, human
Procedure: as §1

[6] = tested on: DAOY; assay: MTT assay, 48 h exposure, DAOY MB cells; format: cell-based, human; conditions: for IC50: Homo sapiens, Daoy, MTT, 48 h exposure, mean ± SEM
Procedure: as §1

[7] = tested on: HDF; assay: Cell viability, propidium iodine incorporation, HDF; format: cell-based, human; conditions: 48 h; axitinib, cabozantinib 5 µM, etoposide 1 µM
Procedure: as §2

[8] = tested on: HDF; assay: MTT assay, 48 h exposure, human dermal fibroblasts; format: cell-based; conditions: Homo sapiens, HDF, Table 1, normal cells, mean ± SEM
Procedure: as §1

[9] = tested on: D458; assay: MTT assay, 48 h exposure, D458 MB cells; format: cell-based, human; conditions: for IC50: Homo sapiens, MTT, 48 h exposure, mean ± SEM
Procedure: as §1

[10] = tested on: MB cells; assay: Proliferation index assay, MB cells; format: cell-based, human; conditions: after 120 h; axitinib 5 µM, etoposide 1 µM
Procedure: DAOY, D458, D283, C8-D1A and HDF (30,000 cells per well) and HD-MB03 (50,000 cells per well) were seeded in 24-well plates for proliferation assays.

[11] = tested on: DAOY; assay: Cumulative population doubling (CPD), DAOY; format: cell-based, human; conditions: continuous treatment; axitinib 5 µM, etoposide 1 µM
Procedure: (§3) Cumulative population doubling (CPD) was assessed as previously described. Briefly, depending on the cell line, a variable number of cells corresponding to about 30% confluency were seeded in triplicate in 60 mm diameter Petri dishes. […] The cells were harvested when the confluency reached about 90%, counted and plated again at a dilution of 1/20. CPD was calculated as previously described.

[12] = tested on: HD-MB03 intracranial tumors
Procedure: HD-MB03-Luc spheroids were stereotaxically implanted into the brains of 9-week-old Rj:NMRI-Foxn1 nude (nu/nu) female mice (Janvier Labs, Le Genest-Saint-Isle, France). Briefly, MB spheroids were generated with 2500 cells grown for 48 h in ultralow-adhesion spheroid 96-well plates (Corning, Corning, NY, USA) and three spheroids per mouse were implanted into the left cerebellar hemisphere (2 mm posterior, 1.5 mm left of the lambda point and 2.5 mm deep) using a Hamilton syringe fitted with a needle (Hamilton, Bonaduz, Switzerland) and following the procedure already described. […] Oral gavage with a vehicle solution was used as the control. Mouse survival was based on the presence of neuropathological symptoms including gait defects and a loss of weight over 10% as endpoints. A minimum of five mice per group was chosen to yield sufficient statistical power (p < 0.05, one-way ANOVA). These experiments were carried out in strict accordance with the recommendations in the Guide for the Care and Use of Laboratory Animals. Our experiments were approved by Direction de l’Action Sanitaire et Sociale of the Principality of Monaco and the ethics committee of Centre Scientifique de Monaco.
(§4) Tumor samples were recovered from the animals and embedded in the OCT compound according to the manufacturer’s protocol (Thermo Fisher Scientific Inc., Waltham, MA, USA). After that, 5 µm thin sections were prepared with a cryostat (Leica Microsystems, Wetzlar, Germany). Incubation was carried out with the following antibodies diluted at 1:1000 in TBS supplemented with 1% horse serum and 1% BSA for 20 min at room temperature: anti-Ki67 (cat. number ab16667, Abcam, Cambridge, UK), anti-CD31 (cat. number 550274, BD Biosciences, Frankton Lake, NJ, USA) or anti-αSMA (cat. number A2547, Merck Millipore, Burlington, MA, USA). The preparations were then washed with TBS–0.025% Triton, incubated with anti-rabbit Alexa488 and anti-mouse Alex-555-coupled secondary antibodies (Cell Signaling Technology, Danvers, MA, USA), washed with TBS–0.025% Triton, and the nuclei were counterstained with Hoechst33342 (Thermo Fisher Scientific, Waltham, MA, USA). Fluorescence images of the cells were taken with a DMI400 inverted microscope equipped with a 40× objective (Leica Microsystemes, Nanterre, France) and a Zyla 5.5 camera (Andor Technologies, Belfast, UK) powered by the Micromanager software. At least one cross-section of nonoverlapping images of each tumor was acquired. All the images were then quantified with the CellProfiler 3.0 software.

[13] = tested on: subcutaneous DAOY tumors; conditions: oral, thrice a week; axitinib 50 mg/kg, etoposide 30 mg/kg, combination 25 + 15 mg/kg
Procedure: For subcutaneous xenograft experiments, tumor cells expressing the luciferase (350,000 HDMB-Luc cells and 1.10^6 DAOY-Luc cells) were resuspended in 200 µL of 5 µg/mL Matrigel (Corning Inc., Corning, NY, USA) and injected subcutaneously in the flank of 5-week-old Rj:NMRI-Foxn1 nude (nu/nu) female mice (Janvier Labs, Le Genest-Saint-Isle, France). Saline solution (NaCl 0.9M; 100 µL) containing 30 mg/mL D-Luciferin (Perkin Elmer, Wellesley, MA, USA) was injected intraperitoneally in the animals and the bioluminescence was quantified using an In Vivo Imaging System (Perkin Elmer, Wellesley, MA, USA) according to the manufacturer’s instructions. Tumor volume (V = L × l2 × 0.52) was determined with a caliper and the endpoint was determined as a tumor volume of 1000 mm^3. […] The mice were sacrificed when the tumor reached 1000 mm^3. […]
(§5) The growth rate of the tumors generated with HD-MB03 cells was determined using a linear regression method applied to the growth curves between the sizes of 400 mm^3 up to the endpoint using Prism 5 (Graphpad Software Inc., San Diego, CA, USA).
Tumor samples were recovered from the animals and embedded in the OCT compound according to the manufacturer’s protocol (Thermo Fisher Scientific Inc., Waltham, MA, USA). […] All the images were then quantified with the CellProfiler 3.0 software.

[14] = tested on: C8-D1A/HD-MB03 mixed spheroids; assay: 3D mixed spheroids of astrocytes and MB cells; format: cell-based; conditions: 7 days; axitinib 5 µM or etoposide 1 µM
Procedure: C8-D1A cells were stained with the green fluorescent probe neuro-DiO (cat. number 60015, Biotium, Fremont, CA, USA) according to the manufacturer’s protocol. C8-D1A-neuroDio cells (150,000) and HD-MB03-mCherry or DAOY-mCherry cells (50,000) were plated in 12-well plates. […] Fluorescence images of the cells were taken with a DMI400 inverted microscope (Leica Microsystemes SAS, Nanterre, France) equipped with a 40× objective and a Zyla 5.5 camera (Andor Technologies, Belfast, UK). The cells were then trypsinized and the number of both cell types was quantified using a Melody FACS (BD Biosciences, Frankton Lake, NJ, USA) with a 488 nm laser beam. Analysis of the FACS data was conducted with the Flowjo software (Tree Star Inc., Ashland, OR, USA).
Two thousand cells were seeded in ultralow-adhesion 96-well plates (Corning Inc., Corning, NY, USA). […] Pictures were taken with an AMG Evos microscope 40× objective (Thermo Fisher Scientific Inc, Waltham, MA, USA) and the spheroid areas were measured using the ImageJ software (NIH, Bethesda, MD, USA).

[15] = tested on: subcutaneous HD-MB03 tumors; assay: Subcutaneous HD-MB03 xenografts; format: in vivo, mouse; conditions: oral, thrice a week
Procedure: For subcutaneous xenograft experiments, tumor cells expressing the luciferase (350,000 HDMB-Luc cells and 1.10^6 DAOY-Luc cells) were resuspended in 200 µL of 5 µg/mL Matrigel (Corning Inc., Corning, NY, USA) and injected subcutaneously in the flank of 5-week-old Rj:NMRI-Foxn1 nude (nu/nu) female mice (Janvier Labs, Le Genest-Saint-Isle, France). Saline solution (NaCl 0.9M; 100 µL) containing 30 mg/mL D-Luciferin (Perkin Elmer, Wellesley, MA, USA) was injected intraperitoneally in the animals and the bioluminescence was quantified using an In Vivo Imaging System (Perkin Elmer, Wellesley, MA, USA) according to the manufacturer’s instructions. Tumor volume (V = L × l2 × 0.52) was determined with a caliper and the endpoint was determined as a tumor volume of 1000 mm^3. […] The mice were sacrificed when the tumor reached 1000 mm^3. […] No statistical methods were used to predetermine the sample size of the experiments. Animal facility availability and cost were used to determine sample sizes. Two independent cohorts of five mice per group were used for the tumor growth experiment with HD-MB03 cells and one cohort of five mice per group was used for the experiment with DAOY cells. Animal experiments were carried out in strict accordance with the recommendations in the Guide for the Care and Use of Laboratory Animals. Our experiments were approved by Direction de l’Action Sanitaire et Sociale of the Principality of Monaco and the ethics committee of Centre Scientifique de Monaco.
as §5, §4

[16] = tested on: HD-MB03; assay: Cumulative population doubling (CPD), HD-MB03; format: cell-based, human; conditions: continuous treatment; axitinib 5 µM, etoposide 1 µM
Procedure: as §3

[17] = axitinib 50 mg/kg, etoposide 30 mg/kg, combination 25 + 15 mg/kg

SMILES: COc1cc2nccc(Oc3ccc(NC(=O)C4(C(=O)Nc5ccc(F)cc5)CC4)cc3)c2cc1OC [Cabozantinib, cabozantinib]
- IC50 ([1]; Table 1, normal cells, mean ± SEM, read-out: IC50 (µM) C8D1A): 4 ± 2.2 µM
- viability of MB cells [2]: decreased the viability of most MB cells
- viability of C8-D1A normal cells [3]: no effect on the viability
- IC50 ([4]; Table 1): 0.78 ± 0.2 µM
- Specificity Index relative to C8D1A, HDMB ([4]; ratio IC50 C8-D1A / IC50 HD-MB03): 5.13
- Specificity Index relative to HDF, HD-MB03 ([4]; ratio IC50 HDF / IC50 HD-MB03): 5.26
- IC50 ([5]; Homo sapiens, Table 1, MTT, 48 h exposure, mean ± SEM): 11.4 ± 2.1 µM
- Specificity Index relative to C8D1A, CHLA-01-Med ([5]; ratio IC50 C8-D1A / IC50 CHLA-01-Med): 0.35
- Specificity Index relative to HDF, CHLA-01-Med ([5]; ratio IC50 HDF / IC50 CHLA-01-Med): 0.36
- IC50 ([6]; Table 1): 8.3 ± 1.2 µM
- Specificity Index relative to C8D1A, DAOY ([6]; ratio IC50 C8-D1A / IC50 DAOY): 0.48
- Specificity Index relative to HDF, DAOY ([6]; ratio IC50 HDF / IC50 DAOY): 0.49
- viability of HDF normal cells [7]: no effect on the viability
- IC50 [8]: 4.1 ± 1.9 µM
- IC50 ([9]; Table 1): 5.1 ± 1.6 µM
- Specificity Index relative to C8D1A, D458 ([9]; ratio IC50 C8-D1A / IC50 D458): 0.78
- Specificity Index relative to HDF, D458 ([9]; ratio IC50 HDF / IC50 D458): 0.80

SMILES: COc1cc([C@@H]2c3cc4c(cc3[C@@H](O[C@@H]3O[C@@H]5CO[C@@H](C)O[C@H]5[C@H](O)[C@H]3O)[C@H]3COC(=O)[C@H]23)OCO4)cc(OC)c1O [Etoposide, etoposide]
- reduction of proliferation of MB cells [10]: more than 80%
- IC50 ([1]; Table 3, mean ± SEM): 2.2 ± 0.6 µM
- long-term proliferation (CPD) of DAOY cells [11]: strongly impaired their proliferation
- IC50 ([4]; Table 3): 0.09 ± 0.006 µM
- number of CD31-positive and αSMA-positive double-stained structures (vessels covered with pericytes) ([12]; metronomic oral treatment): decreased the number
- survival of mice with intracranial tumors ([12]; oral, five times a week, axitinib 50 mg/kg, etoposide 30 mg/kg, combination 25 + 15 mg/kg): no significant effect on survival
- tumor growth (lognormal mathematical modelling) [13]: decreased tumor growth rates
- IC50 ([6]; Table 3): 0.2 µM
- size of mixed spheroids [14]: strong decrease in the size of spheroids
- number of endothelial cells (CD31-positive) and/or pericytes/cancer-associated fibroblasts (αSMA-positive) [15]: did not impact
- median time to reach the endpoint volume (1000 mm^3) [15, 17]: 18 days
- range of time to reach the endpoint volume (1000 mm^3) [15, 17]: 11 to 60 days
- long-term proliferation (CPD) of HD-MB03 cells [16]: strongly impaired their proliferation
- IC50 ([9]; Table 3): 0.52 ± 0.15 µM
